# What was measured:
# Puccinia triticina = assay: in vivo preventive Puccinia triticina test (wheat); conditions: 8 days after inoculation
# Method: (§1) To produce a suitable preparation of active compound, 1 part by weight of active compound or active compound combination is mixed with the stated amounts of solvent and emulsifier, and the concentrate is diluted with water to the desired concentration.
# To test for preventive activity, young plants are sprayed with the preparation of active compound or active compound combination at the stated rate of application. After the spray coating has been dried, the plants are sprayed with a spore suspension of Puccinia triticina. The plants remain for 48 hours in an incubation cabinet at approximately 20° C. and a relative atmospheric humidity of approximately 100%. The plants are placed in the greenhouse at a temperature of approximately 20° C. and a relative atmospheric humidity of approximately 80%.
# (§2) The test is evaluated 8 days after the inoculation. 0% means an efficacy which corresponds to that of the untreated control, while an efficacy of 100% means that no disease is observed.
# Septoria tritici = assay: in vivo preventive Septoria tritici test (wheat); conditions: 21 days after inoculation
# Method: as §1
# To test for preventive activity, young plants are sprayed with the preparation of active compound or active compound combination at the stated rate of application.
# After the spray coating has been dried, the plants are sprayed with a spore suspension of Septoria tritici.
# The plants remain for 48 hours in an incubation cabinet at approximately 20° C. and a relative atmospheric humidity of approximately 100% and afterwards for 60 hours at approximately 15° C. in a translucent incubation cabinet at a relative atmospheric humidity of approximately 100%.
# The plants are placed in the greenhouse at a temperature of approximately 15° C. and a relative atmospheric humidity of approximately 80%.
# The test is evaluated 21 days after the inoculation. 0% means an efficacy which corresponds to that of the untreated control, while an efficacy of 100% means that no disease is observed.
# Leptosphaeria nodorum = assay: in vivo preventive Leptosphaeria nodorum test (wheat); conditions: 8 days after inoculation
# Method: as §1
# To test for preventive activity, young plants are sprayed with the preparation of active compound or active compound combination at the stated rate of application. After the spray coating has been dried, the plants are sprayed with a spore suspension of Leptosphaeria nodorum. The plants remain for 48 hours in an incubation cabinet at approximately 20° C. and a relative atmospheric humidity of approximately 100%. The plants are placed in the greenhouse at a temperature of approximately 25° C. and a relative atmospheric humidity of approximately 80%.
# as §2
# Pyrenophora teres = assay: in vivo preventive Pyrenophora teres test (barley); conditions: 8 days after inoculation
# Method: as §1
# To test for preventive activity, young plants are sprayed with the preparation of active compound or active compound combination at the stated rate of application. After the spray coating has been dried, the plants are sprayed with a spore suspension of Pyrenophora teres. The plants remain for 48 hours in an incubation cabinet at approximately 20° C. and a relative atmospheric humidity of approximately 100%. The plants are placed in the greenhouse at a temperature of approximately 20° C. and a relative atmospheric humidity of approximately 80%.
# as §2
compound,measurement,setting,value
"CC(C)c1ccc(Cl)cc1CN(C(=O)c1c(C(F)F)nn(C)c1F)C1CC1 [A5, N-(5-chloro-2-isopropylbenzyl)-N-cyclopropyl-3-(difluoromethyl)-5-fluoro-1-methyl-1H-pyrazole-4-carboxamide]",Efficacy in % found,Puccinia triticina; 7.5 ppm a.i.,30%
same,Efficacy in % found,Puccinia triticina; 15 ppm a.i.,50%
same,Efficacy in % found,Puccinia triticina; 30 ppm a.i.,70%
same,Efficacy in % found,"Septoria tritici; Table A1, wheat, 20 ppm a.i.",10%
same,Efficacy in % found,"Septoria tritici; Table A2, wheat, 15 ppm a.i.",30%
same,Efficacy in % found,"Septoria tritici; Table A2, wheat, 30 ppm a.i.",50%
same,Efficacy in % found,Leptosphaeria nodorum; 6.25 ppm a.i.,17%
same,Efficacy in % found,Leptosphaeria nodorum; 12.5 ppm a.i.,33%
same,Efficacy in % found,Pyrenophora teres; 25 ppm a.i.,71%
O=C(NCCc1ncc(C(F)(F)F)cc1Cl)c1ccccc1C(F)(F)F [fluopyram],Efficacy in % found,Puccinia triticina; 45 ppm a.i.,0%
same,Efficacy in % found,"Septoria tritici; Table A2, wheat, 45 ppm a.i.",40%
same,Efficacy in % found,Leptosphaeria nodorum; 9.375 ppm a.i.,0%
same,Efficacy in % found,Pyrenophora teres; 37.5 ppm a.i.,43%
OC(Cc1ccccc1Cl)(Cn1nc[nH]c1=S)C1(Cl)CC1 (stereo not drawn) [prothioconazole],Efficacy in % found,Puccinia triticina; 30 ppm a.i.,0%
same,Efficacy in % found,Puccinia triticina; 90 ppm a.i.,20%
same,Efficacy in % found,"Septoria tritici; Table A1, wheat, 200 ppm a.i.",30%
same,Efficacy in % found,"Septoria tritici; Table A2, wheat, 60 ppm a.i.",40%
same,Efficacy in % found,"Septoria tritici; Table A2, wheat, 90 ppm a.i.",20%
same,Efficacy in % found,Leptosphaeria nodorum; 18.75 ppm a.i.,0%
same,Efficacy in % found,Leptosphaeria nodorum; 25 ppm a.i.,0%
same,Efficacy in % found,Pyrenophora teres; 50 ppm a.i.,0%
same,Efficacy in % found,Pyrenophora teres; 75 ppm a.i.,0%
CC(C)(C)C(O)(CCc1ccc(Cl)cc1)Cn1cncn1 (stereo not drawn) [tebuconazole],Efficacy in % found,Puccinia triticina; 30 ppm a.i.,30%
same,Efficacy in % found,"Septoria tritici; Table A2, wheat, 60 ppm a.i.",20%
same,Efficacy in % found,Leptosphaeria nodorum; 25 ppm a.i.,0%
same,Efficacy in % found,Pyrenophora teres; 50 ppm a.i.,0%
CON=C(C(=O)OC)c1ccccc1CON=C(C)c1cccc(C(F)(F)F)c1 [trifloxystrobin],Efficacy in % found,"Septoria tritici; Table A1, wheat, 20 ppm a.i.",30%
